Reference: patent publication EP0391644B1, “Aryl-substituted rhodanine derivatives” (ELI LILLY AND COMPANY, priority 1989, dated 1990)
Several values for one entry are separate records, joined by “and”; a condition that tells them apart may be missing. Identical values can stand only once.

How the values were obtained:
[1] = system: ischemia-induced brain damage in the hippocampal CA1 region; experiment: Stroke model in rats; format: in vivo, Male Wistar rats; conditions: mean ± standard error, scale 0 = no damage to 3 = severe damage of CA1 layer
From the text: Strokes were produced in rats by occluding the four arteries that supply blood to the brain according to the following procedure. Male Wistar rats were anesthetized with Metofane and placed into a stereotaxic instrument. A longitudinal incision was made on the dorsal surface of the neck. The neck muscles were reflected to expose the dorsal surface of the spinal column. The two vertebral arteries were exposed where they pass through the first cervical vertebra. Both arteries were permanently occluded by the application of electrocautery. After coagulation of the vertebral arteries, the rat was removed from the stereotaxic instrument and the surgical wound was sutured. Two longitudinal incisions were then made on the ventral surface of the neck. The two common carotid arteries were exposed and dissected free from surrounding nerves and connective tissue. An atraumatic clasp, fabricated mainly from silicon rubber tubing, was placed around each carotid artery in a manner such that the vessel was not traumatized or occluded. The surgical wounds were then closed. The atraumatic clasps were designed in such a manner that they could be tightened to occlude the carotid arteries by pulling on a small silastic thread that was allowed to protrude from the wound. Circulation to the brain through the carotids could be restored by relieving the tension on the silastic threads. After the surgery, the rats were allowed to recover for 24 hours.
On the day of testing, compounds were suspended in 2% acacia and were administered orally at various times before stroke induction. Strokes (cerebral ischemia) were induced by tightening the clasps around the carotids for a period of 30 minutes. During this time, rats in which strokes had successfully been produced lost the righting reflex and became unresponsive to stimuli. After 30 minutes of ischemia, tension on the clasps was removed and blood flow to the brain restored. Rats were again treated with compounds on the morning after the stroke. On the third day after the stroke the animals received an overdose of barbituate anesthetic, and the brain was perfused in situ with 10% neutral, buffered formalin. After perfusion with amounts of formalin adequate to fix the brain, the brains were removed and stored in 10% formalin until histological sections could be prepared.
One of the areas of the brain that is most susceptible to ischemia induced damage both in the rat and the human is the CA1 pyramidal cell layer of the hippocampus. In animals that remain unresponsive for the 30 minute period of ischemia, the CA1 pyramidal cell layer is completely destroyed. This layer of cells was examined microscopically in histological sections prepared from the hippocampus. Brain damage was rated according to the following scale: 0 = no damage, completely intact cell layer 1 = mild damage, one-third of CA1 layer dead 2 = moderate damage, two-thirds of CA1 layer dead 3 = severe damage, complete destruction of CA1 layer
Damage in 10-12 sections from each brain was assessed in order to obtain an accurate estimate of damage. An average damage score was calculated for each treatment group. Scores from treated groups were compared statistically with scores from control groups which received only the vehicle (2% acacia) that was used to suspend the compounds. The level of significance was determined using Student's "t-test".

[2] = system: adjuvant-induced arthritis; experiment: Developing Adjuvant-Induced Arthritis Test in Rats; format: in vivo, male Lewis-Wistar rats; conditions: Rattus norvegicus, po, 720 h; 50 mg/kg P.O. x 29; AUC of uninjected paw volumes, Days 16 through 30; read-out: % Inhibition of Uninjected Paw Volume Inflammation
[3] = system: Dystrophic mice (dy/dy); experiment: Muscular Dystrophy Animal Model; format: in vivo
Description: Dystrophic mice (dy/dy) were obtained from Jackson Laboratories after weaning (approximately 21 days) and treatment with the compounds shown in Table V was begun at the first sign of dystrophy. The compounds that were tested were administered in the diet and lifespan was measured during the course of treatment. The food and water sources were located in different parts of the cage requiring the animals to walk from the food source to the water source to survive.

[4] = 100 mg/kg given orally as a suspension in 2% acacia
[5] = 50 mg/kg given orally as a suspension in 2% acacia

Structure (SMILES)	Damage Score [1, 4]	inhibition in vivo at 50 mg/kg [2]	further results
CC(C)(C)c1cc(C=C2SCN(CC(N)=O)C2=O)cc(C(C)(C)C)c1O [Example 5, 5-{[3,5-bis(1,1-dimethylethyl)-4-hydroxyphenyl]methylene}-4-oxo-3-thiazolidineacetamide]	1.8 ± 0.4 (p=0.05)	7%	
CSCCN1CSC(=Cc2cc(C(C)(C)C)c(O)c(C(C)(C)C)c2)C1=O [Example 6, 5-{[3,5-bis(1,1-dimethylethyl)-4-hydroxyphenyl]methylene}-3-[2-(methylthio)ethyl]-4-thiazolidinone]	2.5 ± 0.2		
COCCN1CSC(=Cc2cc(C(C)(C)C)c(O)c(C(C)(C)C)c2)C1=O [Example 7, 5-{[3,5-bis(1,1-dimethylethyl)-4-hydroxyphenyl]methylene}-3-(2-methoxyethyl)-4-thiazolidinone]	2.5 ± 0.2	30%	
CN1CSC(=Cc2cc(C(C)(C)C)c(O)c(C(C)(C)C)c2)C1=O [Example 10, 5-{[3,5-bis(1,1-dimethylethyl)-4-hydroxyphenyl]methylene}-3-methyl-4-thiazolidinone]	0.75 ± 0.26 (p<0.02)	57%	Average Life Span ([3]; 0.03 percent by weight of compound in diet): 93 days and 112 days and 90 days and 80 days and 110 days; Average Life Span ([3]; 0.08 percent by weight of compound in diet): 45 days and 67 days; Average Life Span ([3]; 0.3 percent by weight of compound in diet): 83 days
CN1CSC(Cc2cc(C(C)(C)C)c(O)c(C(C)(C)C)c2)C1=O (stereo not shown) [Example 11, 5-{[3,5-bis(1,1-dimethylethyl)-4-hydroxyphenyl]methyl}-3-methyl-4-thiazolidinone]	2.1 ± 0.3	19.7%	
CN1C[S+]([O-])C(=Cc2cc(C(C)(C)C)c(O)c(C(C)(C)C)c2)C1=O (stereo not shown) [Example 12, 5-{[3,5-bis(1,1-dimethylethyl)-4-hydroxyphenyl]methylene}-3-methyl-4-thiazolidinone, 1-oxide]	1.8 ± 0.4	4.8%	
CN1CS(=O)(=O)C(=Cc2cc(C(C)(C)C)c(O)c(C(C)(C)C)c2)C1=O [Example 13, 5-{[3,5-bis(1,1-dimethylethyl)-4-hydroxyphenyl]methylene}-3-methyl-4-thiazolidinone, 1,1-dioxide]	2.1 ± 0.3	8.7%	
CN(C)N1C[S+]([O-])C(=Cc2cc(C(C)(C)C)c(O)c(C(C)(C)C)c2)C1=O (stereo not shown) [Example 22, 5-{[3,5-bis(1,1-dimethylethyl)-4-hydroxyphenyl]methylene}-3-(dimethylamino)-4-thiazolidinone, 1-oxide]	2.3 ± 0.3	1%	
CC(C)(C)c1cc(C=C2C(=O)NC[S+]2[O-])cc(C(C)(C)C)c1O (stereo not shown) [Example 23, 5-{[3,5-bis(1,1-dimethylethyl)-4-hydroxyphenyl]methylene}-4-thiazolidinone, 1-oxide]	2.2 ± 0.4	28%	
CC(=O)OCCN1CSC(=Cc2cc(C(C)(C)C)c(O)c(C(C)(C)C)c2)C1=O [Example 26, 5-{[3,5-bis(1,1-dimethylethyl)-4-hydroxyphenyl]-methylene}-3-[2-(acetyloxy)ethyl]-4-thiazolidinone]	1.9 ± 0.4	30.4%	
CNCCN1CSC(=Cc2cc(C(C)(C)C)c(O)c(C(C)(C)C)c2)C1=O [Example 28, 5-{[3,5-bis(1,1-dimethylethyl)-4-hydroxyphenyl]methylene}-3-[2-(methylamino)ethyl]-4-thiazolidinone]		72%	Damage Score [1, 5]: 1.0 ± 0.4 (p=0.009)
COc1ccc(CN2CSC(=Cc3cc(C(C)(C)C)c(O)c(C(C)(C)C)c3)C2=O)cc1 [Example 36, 5-{[3,5-bis(1,1-dimethylethyl)-4-hydroxyphenyl]methylene}-3-[(4-methoxyphenyl)methyl]-4-thiazolidinone]	2.3 ± 0.4		
CC(C)(C)c1cc(C=C2SCN(CC#N)C2=O)cc(C(C)(C)C)c1O [Example 38, 5-{[3,5-bis(1,1-dimethylethyl)-4-hydroxyphenyl]methylene}-4-oxo-3-thiazolidineacetonitrile]		1.8%	Damage Score ([1]; 200 mg/kg given orally as a suspension in 2% acacia): 1.6 ± 0.04
CCCc1cc(C=C2SCNC2=O)cc(CCC)c1O [Example 57, 5-[(4-hydroxy-3,5-dipropylphenyl)methylene]-4-thiazolidinone]		44.1%	
Cc1cc(C=C2SCNC2=O)cc(C(C)(C)C)c1O [Example 58, 5-{[3-(1,1-dimethylethyl)-4-hydroxy-5-methylphenyl]methylene}-4-thiazolidinone]		16.9%	
Cc1cc(C=C2SCN(N)C2=O)cc(C(C)(C)C)c1O [Example 59, 3-amino-5-{[3-(1,1-dimethylethyl)-4-hydroxy-5-methylphenyl]methylene}-4-thiazolidinone]		19.8%	
Cc1cc(C=C2SC(=S)N(N(C)C)C2=O)cc(C(C)(C)C)c1O [Example 60, 5-{[3-(1,1-dimethylethyl)-4-hydroxy-5-methylphenyl]methylene}-3-dimethylamino-2-thioxo-4-thiazolidinone]		40.6%	
Cc1cc(C=C2SCN(C)C2=O)cc(C(C)(C)C)c1O [Example 61, 5-{[3-(1,1-dimethylethyl)-4-hydroxy-5-methylphenyl]methylene}-3-methyl-4-thiazolidinone]		5.3%	Damage Score [1, 5]: 1.7 ± 0.3 (p=0.03)
Cc1cc(C=C2SCN(N(C)C)C2=O)cc(C(C)(C)C)c1O [Example 62, 5-{[3-(1,1-dimethylethyl)-4-hydroxy-5-methylphenyl]methylene}-3-dimethylamino-4-thiazolidinone]	1.2 ± 0.3 (p<0.05)	11.2%	
CC(=O)OCCCc1cc(C=C2SCN(C)C2=O)cc(CCCOC(C)=O)c1O [Example 63, 5-{[3,5-bis[3-(acetyloxy)propyl]-4-hydroxyphenyl]methylene}-3-methyl-4-thiazolidinone]		9.8%	
CC(=O)OCCCc1cc(C=C2SCN(N(C)C)C2=O)cc(CCCOC(C)=O)c1O [Example 64, 5-{[3,5-bis[3-(acetyloxy)propyl]-4-hydroxyphenyl]methylene}-3-(dimethylamino)-4-thiazolidinone]		5.5%	
CN1CSC(=Cc2ccc(O)c(C(C)(C)C)c2)C1=O [Example 66, 5-{[3-(1,1-dimethylethyl)-4-hydroxyphenyl]-methylene}-3-methyl-4-thiazolidinone]		26.1%	
CC(C)(C)c1cc(C=C2SC(=O)NC2=O)cc(C(C)(C)C)c1O [Example 67, 5-{[3,5-bis(1,1-dimethylethyl)-4-hydroxyphenyl]methylene}-2,4-thiazolidinedione]	1.4 ± 0.3 (p<0.05)		
Cc1cc(C=C2SCN(C)C2=O)cc(C)c1O [Example 68, 5-[(4-hydroxy-3,5-dimethylphenyl)methylene]-3-methyl-4-thiazolidinone]		6.5%	
CC(C)(C)c1cc(C=C2CCNC2=O)cc(C(C)(C)C)c1O [Example 69, 3-{[3,5-bis(1,1-dimethylethyl)-4-hydroxyphenyl]methylene}-2-pyrrolidinone]			Damage Score [1, 5]: 0.98 ± 0.42 (p=0.037)
CN1CCC(=Cc2cc(C(C)(C)C)c(O)c(C(C)(C)C)c2)C1=O [Example 70, 3-{[3,5-bis(1,1-dimethylethyl)-4-hydroxyphenyl]-methylene}-1-methyl-2-pyrrolidinone]	0.7 ± 0.4 (p=0.039)		
CN1C(=O)C(=Cc2cc(C(C)(C)C)c(O)c(C(C)(C)C)c2)SC1O (stereo not shown) [Example 71, 5-{[3,5-bis(1,1-dimethylethyl)-4-hydroxyphenyl]methylene}-2-hydroxy-3-methyl-4-thiazolidinone]		48.2%	
